{
  "source": "patent US10232026B2",
  "about": "“Vaccine for mycoplasma infection” (NATIONAL INSTITUTE OF INFECTIOUS DISEASES, priority 2009, dated 2019)",
  "test_system": "human peripheral-blood mononuclear cells",
  "test": "Interferon γ production by peripheral-blood mononuclear cells with interleukin 2 (ELISA)",
  "assay_type": "cell-based",
  "details": "lipid antigen added with interleukin 2, supernatant ELISA",
  "method": "It was found out that the production amount of interferon γ increased by 2 folds or more when mycoplasma-mimic particles (GGPL-I, GGPL-III) were added as compared with administration of interleukin 2 alone using human peripheral-blood mononuclear cells. The mononuclear cells were separated from the peripheral blood of a healthy individual, and a sample in which interleukin 2 and the lipid antigen were added to the mononuclear cells, and a sample of the mononuclear cells without adding the lipid antigen were cultured, and supernatants thereof were recovered, and the amounts of interferon γ in the supernatants were measured with an enzyme antibody immune method (ELISA method).\nMononuclear cells were separated from the peripheral blood of a healthy individual. A sample in which interleukin 2 and mycoplasma-mimic particles (GGPL-I, or GGPL-III) were added to the mononuclear cells, and a sample of the mononuclear cells with no addition of the mycoplasma-mimic particles were cultured, and supernatants thereof were recovered, and the amounts of interferon γ in the supernatant were measured with an enzyme antibody immune method (ELISA method).\nMononuclear cells were separated from the peripheral blood of a healthy individual. […]",
  "data": [
    {"smiles": "CCCCCCCCCCCCCCCC(=O)OC[C@H](CO[C@H]1O[C@H](COP(=O)(O)OCC(N)COP(=O)(O)OCC[N+](C)(C)C)[C@@H](O)[C@H](O)[C@H]1O)OC(=O)CCCCCCCCCCCCCCC", "note": "(stereo partly shown) [GGPL-III]", "values": [
      {"measurement": "production amount of interferon γ in comparison with no addition of the lipid antigen", "result": "remarkably increased"}
    ]}
  ]
}
